Patent US20250024870A1, “NATURAL SUGAR-FREE SYRUP, AND PRODUCTION METHOD THEREOF” (CJ CHEILJEDANG CORPORATION, priority 2021, published 2025)

Assays:
Format in all cases: cell-based
[1] = test system: General bacteria, bacteria derived from flavor syrup; experiment: Microbial challenge test (MCT) in sucrose-zero vanilla syrup, general bacteria; details: for general bacteria count, Max.: Max. concentration of agent; for general bacteria count, Min.: Min. concentration of agent; for general bacteria count: single concentration as printed in the row
Protocol: (§1) Subsequently, the microbial challenge test (MCT) was conducted in the following order. The experiment was applied to the vanilla syrup, which is the representative among the sucrose syrup, the vanilla syrup, and the red grapefruit syrup, and the applied strains and analysis conditions are shown in Table 14.
(§2) The microbial challenge test (MCT) experiment conditions are as follows: 1) prepare a sucrose-zero vanilla syrup; 2) prepare general bacteria/fungi/spores that have completed proliferation; 3) inject 10^3 cfu/ml of bacteria into a sterilized glass container (100 ml); 4) fill 3) with sucrose-zero vanilla syrup at the filling temperature (80° C. or higher); 5) let it stand after cooling; 6) one day after the cooling of the stationary sample was completed, culture was performed on a weekly basis; and 7) verify the trend of bacterial proliferation or decline for each natural antibacterial agent for 4 weeks.

Fungi (Asp. niger) [2] = experiment: Minimum inhibitory concentration (MIC), paper disc diffusion method, fungi; details: legend not given
Protocol: (§3) [table] The minimum inhibitory concentration (MIC) was conducted to confirm the antibacterial activity of each antibacterial agent and the minimum concentration showing antibacterial activity against the target strain, and the paper disc diffusion method was used as the experimental method. […] It was confirmed that if the bacteria had antibacterial activity, the proliferation of bacteria was inhibited as a clear zone was created around the paper.

Spores (B. subtilis) [3] = experiment: Minimum inhibitory concentration (MIC), paper disc diffusion method, spores; details: legend not given
Protocol: as §3

Spores (B. subtilis) [4] = experiment: Microbial challenge test (MCT) in sucrose-zero vanilla syrup, spores; details: for spores count, Max.: Max. concentration of agent; for spores count, Min.: Min. concentration of agent; for spores count: single concentration as printed in the row
Protocol: as §1, §2

[5] = test system: General bacteria (T.A.B), bacteria derived from flavor syrup; experiment: Minimum inhibitory concentration (MIC), paper disc diffusion method, general bacteria; details: legend not given
Protocol: as §3

Fungi (Asp. niger) [6] = experiment: Microbial challenge test (MCT) in sucrose-zero vanilla syrup, fungi; details: for fungi count, Max.: Max. concentration of agent; for fungi count, Min.: Min. concentration of agent; for fungi count: single concentration as printed in the row
Protocol: as §1, §2

[7] = immediately after inoculation of target bacteria

E-polylisine [E-polylysine]
general bacteria count, Max. ([1]; after 1 week): 126
general bacteria count, Min. ([1]; after 1 week): 129
general bacteria count, Max. ([1]; after 2 weeks): 115
general bacteria count, Min. ([1]; after 2 weeks): 120
general bacteria count, Max. ([1]; after 3 weeks): 110
general bacteria count, Min. ([1]; after 3 weeks): 120
general bacteria count, Max. ([1]; after 4 weeks): 108
general bacteria count, Min. ([1]; after 4 weeks): 110
general bacteria count, Max. [1, 7]: 129
general bacteria count, Min. [1, 7]: 132
Antibacterial activity (clear zone), fungi (Fungi (Asp. niger) [2]; 400 ppm): ∘
Antibacterial activity (clear zone), fungi (Fungi (Asp. niger) [2]; 500 ppm): ∘
Antibacterial activity (clear zone), fungi (Fungi (Asp. niger) [2]; 1,000 ppm): ∘
Antibacterial activity (clear zone), spores (Spores (B. subtilis) [3]; 400 ppm): ∘
Antibacterial activity (clear zone), spores (Spores (B. subtilis) [3]; 500 ppm): ∘
Antibacterial activity (clear zone), spores (Spores (B. subtilis) [3]; 1,000 ppm): ∘
spores count, Max. (Spores (B. subtilis) [4]; after 1 week): 720
spores count, Min. (Spores (B. subtilis) [4]; after 1 week): 870
spores count, Max. (Spores (B. subtilis) [4]; after 2 weeks): 773
spores count, Min. (Spores (B. subtilis) [4]; after 2 weeks): 850
spores count, Max. (Spores (B. subtilis) [4]; after 3 weeks): 780
spores count, Min. (Spores (B. subtilis) [4]; after 3 weeks): 800
spores count, Max. (Spores (B. subtilis) [4]; after 4 weeks): 720
spores count, Min. (Spores (B. subtilis) [4]; after 4 weeks): 830
spores count, Max. (Spores (B. subtilis) [4]; [7]): 720
spores count, Min. (Spores (B. subtilis) [4]; [7]): 880
Antibacterial activity (clear zone), general bacteria (T.A.B) ([5]; 200 ppm): ∘
Antibacterial activity (clear zone), general bacteria (T.A.B) ([5]; 300 ppm): ∘
Antibacterial activity (clear zone), general bacteria (T.A.B) ([5]; 400 ppm): ∘
Antibacterial activity (clear zone), general bacteria (T.A.B) ([5]; 500 ppm): ∘
Antibacterial activity (clear zone), general bacteria (T.A.B) ([5]; 1,000 ppm): ∘
fungi count, Max. (Fungi (Asp. niger) [6]; after 1 week): 135
fungi count, Min. (Fungi (Asp. niger) [6]; after 1 week): 147
fungi count, Max. (Fungi (Asp. niger) [6]; after 2 weeks): 130
fungi count, Min. (Fungi (Asp. niger) [6]; after 2 weeks): 137
fungi count, Max. (Fungi (Asp. niger) [6]; after 3 weeks): 128
fungi count, Min. (Fungi (Asp. niger) [6]; after 3 weeks): 130
fungi count, Max. (Fungi (Asp. niger) [6]; after 4 weeks): 125
fungi count, Min. (Fungi (Asp. niger) [6]; after 4 weeks): 128
fungi count, Max. (Fungi (Asp. niger) [6]; [7]): 138
fungi count, Min. (Fungi (Asp. niger) [6]; [7]): 150

C/C=C/C=C/C(=O)[O-].[K+] [Potassium sorbate, reference compound]
general bacteria count ([1]; after 1 week): 93
general bacteria count ([1]; after 2 weeks): 83
general bacteria count ([1]; after 3 weeks): 80
general bacteria count ([1]; after 4 weeks): 78
general bacteria count [1, 7]: 98
Antibacterial activity (clear zone), fungi (Fungi (Asp. niger) [2]; 300 ppm): ∘
Antibacterial activity (clear zone), fungi (Fungi (Asp. niger) [2]; 400 ppm): ∘
Antibacterial activity (clear zone), fungi (Fungi (Asp. niger) [2]; 500 ppm): ∘
Antibacterial activity (clear zone), fungi (Fungi (Asp. niger) [2]; 1,000 ppm): ∘
Antibacterial activity (clear zone), spores (Spores (B. subtilis) [3]; 300 ppm): ∘
Antibacterial activity (clear zone), spores (Spores (B. subtilis) [3]; 400 ppm): ∘
Antibacterial activity (clear zone), spores (Spores (B. subtilis) [3]; 500 ppm): ∘
Antibacterial activity (clear zone), spores (Spores (B. subtilis) [3]; 1,000 ppm): ∘
spores count (Spores (B. subtilis) [4]; after 1 week): 873
spores count (Spores (B. subtilis) [4]; after 2 weeks): 876
spores count (Spores (B. subtilis) [4]; after 3 weeks): 850
spores count (Spores (B. subtilis) [4]; after 4 weeks): 860
spores count (Spores (B. subtilis) [4]; [7]): 880
Antibacterial activity (clear zone), general bacteria (T.A.B) ([5]; 300 ppm): ∘
Antibacterial activity (clear zone), general bacteria (T.A.B) ([5]; 400 ppm): ∘
Antibacterial activity (clear zone), general bacteria (T.A.B) ([5]; 500 ppm): ∘
Antibacterial activity (clear zone), general bacteria (T.A.B) ([5]; 1,000 ppm): ∘
fungi count (Fungi (Asp. niger) [6]; after 1 week): 63
fungi count (Fungi (Asp. niger) [6]; after 2 weeks): 66
fungi count (Fungi (Asp. niger) [6]; after 3 weeks): 60
fungi count (Fungi (Asp. niger) [6]; after 4 weeks): 58
fungi count (Fungi (Asp. niger) [6]; [7]): 68
